Values joined by “and” are separate entries in the source; they are usually repeats but may differ in a detail not shown here. Equal values may be shown once. Toxic doses and inconclusive results are not listed. The calls were made as follows: active = survival T/C of 150% or more; inactive = T/C below 125% in these data.
Test system: P388 leukemia ip, CD2F1 mice, survival T/C
Test: NCI In Vivo Anticancer Drug Screen. Data for tumor model P388 Leukemia (intraperitoneal) in CD2F1 (CDF1) mice
Details: endpoint: median survival time, higher = longer survival
How it was run: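 Mice carrying the transplanted tumor received test compound or vehicle. Survival was recorded in each group, and the value is the treated-group measurement divided by that of the vehicle-treated control group.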

[1] = dose: 50.0 mg/kg/injection, schedule: Q01DX009 (ip), vehicle: saline with Tween-80
[2] = dose: 100.0 mg/kg/injection, schedule: Q01DX009 (ip), vehicle: saline with Tween-80
[3] = dose: 100.0 mg/kg/injection, schedule: Q04DX002 (ip), vehicle: saline
[4] = dose: 200.0 mg/kg/injection, schedule: Q04DX002 (ip), vehicle: saline
[5] = dose: 400.0 mg/kg/injection, schedule: Q04DX002 (ip), vehicle: saline
[6] = dose: 60.0 mg/kg/injection, schedule: Q01DX005 (ip), vehicle: saline with Tween-80
[7] = dose: 120.0 mg/kg/injection, schedule: Q01DX005 (ip), vehicle: saline with Tween-80
[8] = dose: 240.0 mg/kg/injection, schedule: Q01DX005 (ip), vehicle: saline with Tween-80
[9] = dose: 50.0 mg/kg/injection, schedule: Q01DX009 (ip), vehicle: saline
[10] = dose: 100.0 mg/kg/injection, schedule: Q01DX009 (ip), vehicle: saline
[11] = dose: 200.0 mg/kg/injection, schedule: Q01DX009 (ip), vehicle: saline
[12] = dose: 50.0 mg/kg/injection, schedule: Q01DX005 (ip), vehicle: Klucel (hydroxypropylcellulose) (HPC)
[13] = dose: 100.0 mg/kg/injection, schedule: Q01DX005 (ip), vehicle: Klucel (hydroxypropylcellulose) (HPC)
[14] = dose: 200.0 mg/kg/injection, schedule: Q01DX005 (ip), vehicle: Klucel (hydroxypropylcellulose) (HPC)
[15] = dose: 12.5 mg/kg/injection, schedule: Q01DX009 (ip), vehicle: Klucel (hydroxypropylcellulose) (HPC)
[16] = dose: 25.0 mg/kg/injection, schedule: Q01DX009 (ip), vehicle: Klucel (hydroxypropylcellulose) (HPC)
[17] = dose: 50.0 mg/kg/injection, schedule: Q01DX009 (ip), vehicle: Klucel (hydroxypropylcellulose) (HPC)
[18] = dose: 100.0 mg/kg/injection, schedule: Q01DX009 (ip), vehicle: Klucel (hydroxypropylcellulose) (HPC)
[19] = dose: 200.0 mg/kg/injection, schedule: Q01DX009 (ip), vehicle: Klucel (hydroxypropylcellulose) (HPC)
[20] = dose: 400.0 mg/kg/injection, schedule: Q01DX009 (ip), vehicle: Klucel (hydroxypropylcellulose) (HPC)
[21] = dose: 100.0 mg/kg/injection, schedule: Q04DX003 (ip), vehicle: saline with Tween-80
[22] = dose: 200.0 mg/kg/injection, schedule: Q04DX003 (ip), vehicle: saline with Tween-80
[23] = dose: 400.0 mg/kg/injection, schedule: Q04DX003 (ip), vehicle: saline with Tween-80

Measured: T/C

COC1/C=C/OC2(C)Oc3c(C)c(O)c4c(O)c(c(/C=N/N5C(C)CN(Cc6ccccc6C#N)CC5C)c(O)c4c3C2=O)NC(=O)/C(C)=C\C=C\C(C)C(O)C(C)C(O)C(C)C(OC(C)=O)C1C (stereo not given)
inactive: dose: 12.5 mg/kg/injection, schedule: Q01DX009 (ip), vehicle: saline with Tween-80 111 % of control | dose: 25.0 mg/kg/injection, schedule: Q01DX009 (ip), vehicle: saline with Tween-80 118 % of control | [1] 109 % of control | [2] 107 % of control and 108 % of control

NC(=O)C(Cl)Cl
inactive: [3] 108 % of control | [4] 100 % of control | [5] 100 % of control

N#Cc1c(-c2ccccc2)cn2c1[nH]c(=O)c1ccccc12
inactive: [6] 111 % of control | [7] 107 % of control | [8] 101 % of control

O=S(=O)(Nc1cccc(NS(=O)(=O)c2ccccc2)n1)c1ccccc1
inactive: dose: 50.0 mg/kg/injection, schedule: Q01DX001 (ip), vehicle: saline with Tween-80 91 % of control | dose: 100.0 mg/kg/injection, schedule: Q01DX001 (ip), vehicle: saline with Tween-80 91 % of control | dose: 200.0 mg/kg/injection, schedule: Q01DX001 (ip), vehicle: saline with Tween-80 91 % of control

O=c1cc(CSc2ncnc3nc[nH]c23)[nH]c(=O)[nH]1
inactive: [9] 106 % of control | [10] 111 % of control | [11] 108 % of control

CCc1nc2c(cnn2C)c(=O)n1C
inactive: [12] 89 % of control | [13] 98 % of control | [14] 90 % of control

CCOC(=O)C(=CNNCCC#N)C(=O)OCC
inactive: [1] 90 % of control | [2] 90 % of control | dose: 200.0 mg/kg/injection, schedule: Q01DX009 (ip), vehicle: saline with Tween-80 95 % of control

C=C[Si]12OCCN(CCO1)CCO2
inactive: [15] 119 % of control | [16] 112 % of control | [17] 114 % of control | [18] 109 % of control and 98 % of control | [19] 102 % of control | [20] 100 % of control

CC1=CCC(C(C)C2CCC3(C)C4=C(C=C5C=CC(=O)OC(C)(C)C5CC4)CCC23C)OC1=O (stereo not given)
inactive: dose: 12.5 mg/kg/injection, schedule: Q01DX005 (ip), vehicle: other 108 % of control | dose: 25.0 mg/kg/injection, schedule: Q01DX005 (ip), vehicle: other 100 % of control | dose: 50.0 mg/kg/injection, schedule: Q01DX005 (ip), vehicle: other 93 % of control | dose: 100.0 mg/kg/injection, schedule: Q01DX005 (ip), vehicle: other 91 % of control

COc1ccccc1NC(=O)C1=C(C)NC(C)=C(C(=O)Nc2ccccc2OC)C1c1ccc(OC)c(OC)c1
inactive: [6] 103 % of control | [7] 99 % of control | [8] 94 % of control

CC12Cc3cn[nH]c3CC1CCC1C2CCC2(C)C1CCC2(C)O (stereo not given)
inactive: [3] 98 % of control | [4] 100 % of control | [5] 97 % of control

Cc1ccc(C)[nH]1
inactive: dose: 12.5 mg/kg/injection, schedule: Q01DX001 (ip), vehicle: alcohol 109 % of control | dose: 25.0 mg/kg/injection, schedule: Q01DX001 (ip), vehicle: alcohol 111 % of control | dose: 50.0 mg/kg/injection, schedule: Q01DX001 (ip), vehicle: alcohol 101 % of control and 102 % of control

CCOC(=O)c1c(C)[nH]c2c(-c3ccccc3)c3cc(Cl)ccc3nc12
inactive: [17] 103 % of control | [18] 109 % of control | [19] 104 % of control | [20] 99 % of control

CCCC[N+](CCCC)=c1ccc2nc3c(C)cc(N(CC)CC)cc3sc-2c1
inactive: dose: 0.75 mg/kg/injection, schedule: Q01DX005 (ip), vehicle: saline 111 % of control | dose: 1.5 mg/kg/injection, schedule: Q01DX005 (ip), vehicle: saline 112 % of control | dose: 3.0 mg/kg/injection, schedule: Q01DX005 (ip), vehicle: saline 118 % of control and 120 % of control

C=C=C(C)CN(CC)CC
inactive: dose: 50.0 mg/kg/injection, schedule: Q01DX005 (ip), vehicle: saline 108 % of control | dose: 100.0 mg/kg/injection, schedule: Q01DX005 (ip), vehicle: saline 107 % of control | dose: 200.0 mg/kg/injection, schedule: Q01DX005 (ip), vehicle: saline 108 % of control

OC1(c2ccc(C3(O)C(c4ccccc4)=C(c4ccccc4)C(c4ccccc4)=C3c3ccccc3)cc2)C(c2ccccc2)=C(c2ccccc2)C(c2ccccc2)=C1c1ccccc1
inactive: [17] 105 % of control | [18] 86 % of control | [19] 90 % of control

Nc1ccc([N+](=O)[O-])c(N)n1
inactive: [21] 100 % of control | [22] 107 % of control | [23] 97 % of control

C=C1C(=O)OC2CC(C)(O)C(O)CC3OC3(C)CC(OC(=O)/C(C)=C/C)C12 (stereo not given)
inactive: dose: 1.25 mg/kg/injection, schedule: Q01DX005 (ip), vehicle: Klucel (hydroxypropylcellulose) (HPC) 99 % of control | dose: 2.5 mg/kg/injection, schedule: Q01DX005 (ip), vehicle: Klucel (hydroxypropylcellulose) (HPC) 101 % of control | dose: 5.0 mg/kg/injection, schedule: Q01DX005 (ip), vehicle: Klucel (hydroxypropylcellulose) (HPC) 108 % of control | dose: 10.0 mg/kg/injection, schedule: Q01DX005 (ip), vehicle: Klucel (hydroxypropylcellulose) (HPC) 110 % of control

CC(=O)Nc1ccc(S(=O)(=O)Nc2ccc([N+](=O)[O-])cc2)cc1
inactive: [21] 90 % of control | [22] 86 % of control | [23] 100 % of control

CN1CCC(OC(=O)c2ccc3ncccc3c2)CC1
inactive: dose: 50.0 mg/kg/injection, schedule: Q04DX003 (ip), vehicle: saline 100 % of control | dose: 100.0 mg/kg/injection, schedule: Q04DX003 (ip), vehicle: saline 98 % of control

OC1CC2c3ccccc3C1c1ccccc12 (stereo not given)
inactive: [12] 95 % of control | [13] 99 % of control | [14] 100 % of control

Cc1cccc(=O)n1C
inactive: [9] 102 % of control | [10] 102 % of control | [11] 100 % of control

N#Cc1c[nH]n2ccnc12
inactive: dose: 60.0 mg/kg/injection, schedule: Q01DX005 (ip), vehicle: Klucel (hydroxypropylcellulose) (HPC) 101 % of control | dose: 120.0 mg/kg/injection, schedule: Q01DX005 (ip), vehicle: Klucel (hydroxypropylcellulose) (HPC) 101 % of control | dose: 240.0 mg/kg/injection, schedule: Q01DX005 (ip), vehicle: Klucel (hydroxypropylcellulose) (HPC) 105 % of control

CCN(CC)CCOC(=O)Nc1cc(C(F)(F)F)ccc1Cl
inactive: [6] 111 % of control | [7] 109 % of control | [8] 90 % of control

N#CC(O)COc1nsnc1N1CCOCC1 (stereo not given)
inactive: dose: 6.25 mg/kg/injection, schedule: Q01DX009 (ip), vehicle: Klucel (hydroxypropylcellulose) (HPC) 108 % of control | [15] 106 % of control | [16] 105 % of control

COc1c2c(cc3c1OCO3)[C@]13C=C[C@H](OC)C[C@H]1N(C2)CC3O (stereo not given in full)
inactive: dose: 0.63 mg/kg/injection, schedule: Q01DX009 (ip), vehicle: saline with Tween-80 90 % of control | dose: 1.25 mg/kg/injection, schedule: Q01DX001 (ip), vehicle: saline 100 % of control | dose: 1.25 mg/kg/injection, schedule: Q01DX009 (ip), vehicle: saline with Tween-80 86 % of control | dose: 2.5 mg/kg/injection, schedule: Q01DX001 (ip), vehicle: saline 109 % of control | dose: 5.0 mg/kg/injection, schedule: Q01DX001 (ip), vehicle: saline with Tween-80 90 % of control

Cc1ccc(C(=O)C2(c3ccc(C)cc3)CCCCC2)cc1
inactive: dose: 50.0 mg/kg/injection, schedule: Q04DX002 (ip), vehicle: Klucel (hydroxypropylcellulose) (HPC) 91 % of control | dose: 100.0 mg/kg/injection, schedule: Q04DX002 (ip), vehicle: Klucel (hydroxypropylcellulose) (HPC) 90 % of control | dose: 200.0 mg/kg/injection, schedule: Q04DX002 (ip), vehicle: Klucel (hydroxypropylcellulose) (HPC) 95 % of control | dose: 400.0 mg/kg/injection, schedule: Q04DX002 (ip), vehicle: Klucel (hydroxypropylcellulose) (HPC) 91 % of control
